In the NIST ThermoML archive (doi:10.1016/j.jct.2010.04.011):
Numbers after ± are expanded uncertainties.

Assay: activity coefficient (dimensionless); of the first substance listed, at infinite dilution; xn = mol fraction of the nth substance listed
Settings: 298 K, Chromatography, x1 = 0

Row | activity coefficient (101 kPa, Liquid) | SMILES | activity coefficient (Gas)
1 | 15.1 ± 3.1 | Cc1ccc(C(C)C)cc1 [1-(1-methylethyl)-4-methylbenzene] + C[S+](C)[O-] | 
2 | 7 ± 1.4 | C1=CCCC1 [cyclopentene] + C[S+](C)[O-] | 
3 | 49.2 ± 10 | CC1CCCCC1 [methylcyclohexane] + C[S+](C)[O-] | 
4 | 63.3 ± 13 | C1CCCCCCC1 [cyclooctane] + C[S+](C)[O-] | 
5 | 29.5 ± 6 | CC1CCCC1 [methylcyclopentane] + C[S+](C)[O-] | 
6 | 14.9 ± 3 | C1=CCCCC1 [cyclohexene] + C[S+](C)[O-] | 
7 | 5.7 ± 1.2 | C1=CC=CCC=C1 [1,3,5-cycloheptatriene] + C[S+](C)[O-] | 
8 | 10.2 ± 2.1 | C#CCCCCCC [1-octyne] + C[S+](C)[O-] | 
9 | 11.6 ± 2.4 | C=CCCC=C [1,5-hexadiene] + C[S+](C)[O-] | 

The remaining lines, values behind:

Row | SMILES | activity coefficient (101 kPa, Liquid) | activity coefficient (Gas)
10 | C#CCCCCC [1-heptyne] + C[S+](C)[O-] | 6.9 ± 1.4 | 
11 | C=CC1CC=CCC1 (configuration not stated) [4-ethenylcyclohexene] + CCCCCCCCCCCCCCCC |  | 0.96 ± 0.19
12 | C=CC1CC=CCC1 (configuration not stated) [4-ethenylcyclohexene] + C[S+](C)[O-] | 20.7 ± 4.2 | 
13 | C1CCCCCCC1 [cyclooctane] + CCCCCCCCCCCCCCCC |  | 0.96 ± 0.19
14 | ClC(Cl)=C(Cl)Cl [tetrachloroethene] + C[S+](C)[O-] | 10.5 ± 2.1 | 
15 | C#CCCCC [1-hexyne] + C[S+](C)[O-] | 4.1 ± 0.8 | 
16 | C=CCCC=C [1,5-hexadiene] + CCCCCCCCCCCCCCCC | 0.8 ± 0.16 | 
17 | ClC(Cl)(Cl)Br [bromotrichloromethane] + C[S+](C)[O-] | 2.1 ± 0.4 | 
